Numbered stars: 1 amine (or outer) side, 2 acyl side, 3 side chain; on linkers, the order of the positions; unused ones are H or OH. Square brackets hold non-standard residues; d marks the D form. Peptide text beside a SMILES is read from it. ξ: configuration not given here. X6 = N=C1NCC(CC(N[*:1])C(=O)[*:2])N1C1OC(CO)C(O)C(O)C1O; Tyr(3-NO2) = N[CH](Cc1ccc(O)c([N+](=O)[O-])c1)C(=O)O; X7 = N=C1NCC(CC(N[*:1])C(=O)[*:2])N1; ξPhe(βξ-Me) = CC(c1ccccc1)C(N)C(=O)O
How the values were obtained:
Experiment in all cases: in vitro antibacterial evaluation, MIC by broth dilution
Assay type in all cases: cell-based
[1] = system: Enterococcus sp.; conditions: broth dilution, 18 hours at 35° C.; for MIC Enterococcus faecalis (ATCC 29212): strain ATCC 29212; for MIC Enterococcus faecalis (GC 2242): strain GC 2242; for MIC Enterococcus faecium (GC 2243): strain GC 2243; for MIC Enterococcus faecalis (GC 2691): strain GC 2691; for MIC Enterococcus faecalis (GC 3059): strain GC 3059; for MIC Enterococcus faecalis (GC 4552): strain GC 4552; for MIC Enterococcus faecalis (GC 4553): strain GC 4553; for MIC Enterococcus faecalis (GC 4554): strain GC 4554; for MIC Enterococcus faecium (GC 4556): strain GC 4556; for MIC Enterococcus faecium (GC 4557): strain GC 4557; for MIC Enterococcus avium (GC 4558): strain GC 4558; for MIC Enterococcus faecalis (GC 6189): strain GC 6189
Method: (§1) Methods for in vitro Antibacterial Evaluation (Table 1)
(§2) The minimum inhibitory concentration (MIC), the lowest concentration of the antibiotic which inhibits growth of the test organism, is determined by the broth dilution method using Muller-Hinton II […] (Baltimore Biological Laboratories) following the recommendations of the National Committee for Clinical Laboratory Standards [Methods for dilution antimicrobial susceptibility tests for bacteria that grow aerobically, approved standard M7-A2, National Committee for Clinical Laboratory Standards, Villanova, Pa.].
(§3) An inoculum level of 5×10^5 CFU/mL, and a range of antibiotic concentrations (64-0.06 μg/mL) is used. […] The test organisms include a spectrum of Gram-positive bacteria comprised of Staphylococcus sp., Streptococcus sp. and Enterococcus sp. These organisms include recent clinical isolates that are resistant to methicillin, penicillin and/or vancomycin.

[2] = system: Staphylococcus sp.
Method: as §1, §2, §3

[3] = system: Streptococcus sp.; conditions: broth dilution, 18 hours at 35° C.; for MIC Streptococcus pneumoniae (ATCC 6301): strain ATCC 6301; for MIC Streptococcus pneumoniae (GC 1894): strain GC 1894; for MIC Streptococcus pyogenes (GC 4563): strain GC 4563; for MIC Streptococcus agalactiae (GC 4564): strain GC 4564; for MIC Streptococcus pneumoniae (GC 4565): strain GC 4565
Method: as §1, §2, §3

[4] = system: Escherichia coli; conditions: broth dilution, 18 hours at 35° C.; for MIC Escherichia coli (ATCC 25922): strain ATCC 25922; for MIC Escherichia coli (GC 4559): strain GC 4559; for MIC Escherichia coli (GC 4560): strain GC 4560
Method: as §2, §3

CC(c1ccccc1)C1NC(=O)CNC(=O)C(CO)NC(=O)C(C(O)C2CNC(=N)N2C2OC(CO)C(O)C(O)C2O)NC(=O)C(C(O)C2CNC(=N)N2)NC(=O)C(Cc2ccc3oc(=O)[nH]c3c2)NC1=O (stereo not drawn) [Example 22, Cyclo[3-(2,3-dihydro-2-oxo-1,3-benzoxazol-5-yl)alanyl-3-(2-iminoimidazolidin-4-yl)seryl-3-(3-hexopyranosyl-2-iminoimidazolidin-4-yl)serylserylglycyl-β-methylphenylalanyl]]
>128 µg/mL: MIC Enterococcus faecalis (ATCC 29212) [1] | MIC Enterococcus faecalis (GC 2242) [1] | MIC Enterococcus faecium (GC 2243) [1] | MIC Enterococcus faecalis (GC 2691) [1] | MIC Enterococcus faecalis (GC 3059) [1] | MIC Enterococcus faecalis (GC 4552) [1] | MIC Enterococcus faecalis (GC 4553) [1] | MIC Enterococcus faecalis (GC 4554) [1] | MIC Enterococcus faecium (GC 4556) [1] | MIC Enterococcus avium (GC 4558) [1] | MIC Enterococcus faecalis (GC 6189) [1] | MIC Staphylococcus aureus (ATCC 29213) ([2]; strain ATCC 29213; broth dilution, 18 hours at 35° C.) | MIC Staphylococcus aureus (GC 1131) ([2]; strain GC 1131; broth dilution, 18 hours at 35° C.) | MIC Staphylococcus aureus (GC 3051) ([2]; strain GC 3051; broth dilution, 18 hours at 35° C.) | MIC Staphylococcus aureus (GC 3053) ([2]; strain GC 3053; broth dilution, 18 hours at 35° C.) | MIC Staphylococcus aureus (GC 4541) ([2]; strain GC 4541; broth dilution, 18 hours at 35° C.) | MIC Staphylococcus aureus (GC 4542) ([2]; strain GC 4542; broth dilution, 18 hours at 35° C.) | MIC Staphylococcus aureus-SMITH (GC 4543) ([2]; strain GC 4543; broth dilution, 18 hours at 35° C.) | MIC Staphylococcus aureus (GC 4544) ([2]; strain GC 4544; broth dilution, 18 hours at 35° C.) | MIC Staphylococcus aureus (GC 4545) ([2]; strain GC 4545; broth dilution, 18 hours at 35° C.) | MIC Staphylococcus haemolyticus (GC 4546) ([2]; strain GC 4546; broth dilution, 18 hours at 35° C.) | MIC Coagulase Negative Staphylococcus (GC 4547) ([2]; strain GC 4547; broth dilution, 18 hours at 35° C.) | MIC Coagulase Negative Staphylococcus (GC 4551) ([2]; strain GC 4551; broth dilution, 18 hours at 35° C.) | MIC Escherichia coli (ATCC 25922) [4] | MIC Escherichia coli (GC 4559) [4] | MIC Escherichia coli (GC 4560) [4]
8 µg/mL: MIC Streptococcus pneumoniae (ATCC 6301) [3] | MIC Streptococcus pneumoniae (GC 1894) [3] | MIC Streptococcus pneumoniae (GC 4565) [3]
64 µg/mL: MIC Enterococcus faecium (GC 4557) [1] | MIC Coagulase Negative Staphylococcus (GC 4549) ([2]; strain GC 4549; broth dilution, 18 hours at 35° C.)
32 µg/mL: MIC Streptococcus pyogenes (GC 4563) [3] | MIC Streptococcus agalactiae (GC 4564) [3]
128 µg/mL: MIC Coagulase Negative Staphylococcus (GC 4548) ([2]; strain GC 4548; broth dilution, 18 hours at 35° C.) | MIC Coagulase Negative Staphylococcus (GC 6257) ([2]; strain GC 6257; broth dilution, 18 hours at 35° C.)

CC(c1ccccc1)C1NC(=O)CNC(=O)C(CO)NC(=O)C(CC2CNC(=N)N2C2OC(CO)C(O)C(O)C2O)NC(=O)C(CC2CNC(=N)N2)NC(=O)C(Cc2ccc(O)c([N+](=O)[O-])c2)NC1=O (stereo not drawn) [Example 10, Cyclo[3-(2-iminoimidazolidin-4-yl)alanyl-3-(3-hexopyranosyl-2-iminoimidazolidin-4-yl)-alanylserylglycyl-β-methylphenylalanyl-3-nitrotyrosyl]] (cyclo(G[ξPhe(βξ-Me)][Tyr(3-NO2)][X7][X6]S); configuration not given here)
>64 µg/mL: MIC Enterococcus faecalis (ATCC 29212) [1] | MIC Enterococcus faecalis (GC 2242) [1] | MIC Enterococcus faecium (GC 2243) [1] | MIC Enterococcus faecalis (GC 2691) [1] | MIC Enterococcus faecalis (GC 3059) [1] | MIC Enterococcus faecalis (GC 4552) [1] | MIC Enterococcus faecalis (GC 4553) [1] | MIC Enterococcus faecalis (GC 4554) [1] | MIC Enterococcus faecium (GC 4556) [1] | MIC Enterococcus faecium (GC 4557) [1] | MIC Enterococcus avium (GC 4558) [1] | MIC Enterococcus faecalis (GC 6189) [1] | MIC Staphylococcus aureus (ATCC 29213) ([2]; broth dilution, 18 hours at 35° C.; strain ATCC 29213) | MIC Staphylococcus aureus (GC 1131) ([2]; broth dilution, 18 hours at 35° C.; strain GC 1131) | MIC Staphylococcus aureus (GC 3051) ([2]; broth dilution, 18 hours at 35° C.; strain GC 3051) | MIC Staphylococcus aureus (GC 3053) ([2]; broth dilution, 18 hours at 35° C.; strain GC 3053) | MIC Staphylococcus aureus (GC 4541) ([2]; broth dilution, 18 hours at 35° C.; strain GC 4541) | MIC Staphylococcus aureus (GC 4542) ([2]; broth dilution, 18 hours at 35° C.; strain GC 4542) | MIC Staphylococcus aureus-SMITH (GC 4543) ([2]; broth dilution, 18 hours at 35° C.; strain GC 4543) | MIC Staphylococcus aureus (GC 4544) ([2]; broth dilution, 18 hours at 35° C.; strain GC 4544) | MIC Staphylococcus aureus (GC 4545) ([2]; broth dilution, 18 hours at 35° C.; strain GC 4545) | MIC Staphylococcus haemolyticus (GC 4546) ([2]; broth dilution, 18 hours at 35° C.; strain GC 4546) | MIC Coagulase Negative Staphylococcus (GC 4547) ([2]; broth dilution, 18 hours at 35° C.; strain GC 4547) | MIC Coagulase Negative Staphylococcus (GC 4548) ([2]; broth dilution, 18 hours at 35° C.; strain GC 4548) | MIC Coagulase Negative Staphylococcus (GC 4549) ([2]; broth dilution, 18 hours at 35° C.; strain GC 4549) | MIC Coagulase Negative Staphylococcus (GC 4551) ([2]; broth dilution, 18 hours at 35° C.; strain GC 4551) | MIC Coagulase Negative Staphylococcus (GC 6257) ([2]; broth dilution, 18 hours at 35° C.; strain GC 6257) | MIC Streptococcus pneumoniae (ATCC 6301) [3] | MIC Streptococcus pneumoniae (GC 1894) [3] | MIC Streptococcus pyogenes (GC 4563) [3] | MIC Streptococcus agalactiae (GC 4564) [3] | MIC Streptococcus pneumoniae (GC 4565) [3] | MIC Escherichia coli (ATCC 25922) [4] | MIC Escherichia coli (GC 4559) [4] | MIC Escherichia coli (GC 4560) [4]

— patent US6914045B2, “Glycopeptide antibiotics” (Wyeth Holdings Corporation, priority 2001, dated 2005)
